Assays:
[1] = system: morningglory; experiment: Herbicidal activity, phosphate-free cyanamide and propionic acid, post-emergence, uncovered pots; type: in vivo, Ipomoea spp.
Excerpt: (§1) The procedures in this example differed from those of Example 2, however, by the use of hydrogen cyanamide crystals free of phosphate ion to prepare the aqueous hydrogen cyanamide solution, by the use of post-emergence application, and by the omission of any covering of the pots during any part of the test. Observations were made for total weed growth, and individual observations were also made for yellow nutsedge, crabgrass, sicklepod, and momingglory. Stock solutions of hydrogen cyanamide at 1.25% by weight and propionic acid at 5.0% by weight, both in water, were prepared as before, except that the hydrogen cyanamide solution, as noted above, was prepared by dissolving hydrogen cyanamide crystals in water in the absence of phosphate ion. […] The weeds were allowed to grow for three weeks before the treatment chemicals were applied. […] Data analyses were performed in the same manner as Examples 1 and 2. Table IX lists the results in weeds per pot for all weeds, Table X for yellow nutsedge, Table XI for crabgrass, Table XII for sicklepod, and Table XIII for morningglory, all both with propionic acid alone at various application rates and with […]

[2] = system: yellow nutsedge; experiment: as above; type: in vivo, Cyperus esculentus
Excerpt: as §1, with “application” for “application rates and with”

[3] = system: Hutcheson soybean; experiment: Crop (soybean) conditions after soil treatment; type: in vivo; settings: 57 d after treatment; for Number of Plants/Pot: 5 seeds/pot
Method: In this study, the soil was naturally infested with four species of nematodes, two of which were deleterious and two beneficial, and observations were made of both the nematode survival and the growth of the soybean plants. Stock solutions of hydrogen cyanamide at 1.0% by weight and propionic acid at 5.0% by weight, both in water, were prepared, the hydrogen cyanamide from a phosphate-buffered 50% aqueous solution. Planting pots measuring 10 cm in diameter, each containing 1 kg of soil, were used. […] The resulting plants were then removed from the pots, the root systems were washed, and the number of plants in each pot was determined. The weights of both fresh shoots and roots were also determined as well as the shoot height and the relative health of the root system, using a subjective index. Soil samples were also collected, and the soil and roots were incubated to determine nematode populations. Treatments were arranged in randomized complete block design with seven replications per treatment, and statistical evaluation of the data was performed with analyses of variance (ANOVA) and standard regression procedures. Fischer's Least Significant Difference at p 0.05 was calculated when appropriate. The results of these tests are listed as final test results in Tables II, III, and IV, with nematode populations in the soil listed in Table II, the nematode populations in the root systems in Table III, and the plant and root parameters of the soybean shoots in Table IV.

[4] = 6 d after treatment, C2H5CO2H 100 mg/kg soil
[5] = 6 d after treatment, C2H5CO2H 200 mg/kg soil
[6] = 6 d after treatment, C2H5CO2H 300 mg/kg soil
[7] = 6 d after treatment, C2H5CO2H 400 mg/kg soil
[8] = 6 d after treatment, C2H5CO2H 500 mg/kg soil
[9] = 13 d after treatment, C2H5CO2H 100 mg/kg soil
[10] = 13 d after treatment, C2H5CO2H 200 mg/kg soil
[11] = 13 d after treatment, C2H5CO2H 300 mg/kg soil
[12] = 13 d after treatment, C2H5CO2H 400 mg/kg soil
[13] = 13 d after treatment, C2H5CO2H 500 mg/kg soil
[14] = 20 d after treatment, C2H5CO2H 100 mg/kg soil
[15] = 20 d after treatment, C2H5CO2H 200 mg/kg soil
[16] = 20 d after treatment, C2H5CO2H 300 mg/kg soil
[17] = 20 d after treatment, C2H5CO2H 400 mg/kg soil
[18] = 20 d after treatment, C2H5CO2H 500 mg/kg soil
[19] = 6 d after treatment, cyanamide 150 mg/kg soil
[20] = 13 d after treatment, cyanamide 150 mg/kg soil
[21] = 20 d after treatment, cyanamide 150 mg/kg soil
[22] = hydrogen cyanamide 125 mg/kg of soil alone, all intervals

CCC(=O)O [C2H5CO2H, propionic acid]
Weeds Per Pot: Morningglory [1, 4]: 7
Weeds Per Pot: Morningglory [1, 5]: 2.1
Weeds Per Pot: Morningglory [1, 6]: 0
Weeds Per Pot: Morningglory [1, 7]: 0
Weeds Per Pot: Morningglory [1, 8]: 0
Weeds Per Pot: Morningglory [1, 9]: 7.3
Weeds Per Pot: Morningglory [1, 10]: 2.1
Weeds Per Pot: Morningglory [1, 11]: 0
Weeds Per Pot: Morningglory [1, 12]: 0
Weeds Per Pot: Morningglory [1, 13]: 0
Weeds Per Pot: Morningglory [1, 14]: 7.3
Weeds Per Pot: Morningglory [1, 15]: 2.1
Weeds Per Pot: Morningglory [1, 16]: 0
Weeds Per Pot: Morningglory [1, 17]: 0
Weeds Per Pot: Morningglory [1, 18]: 0
Weeds Per Pot: Yellow Nutsedge [2, 4]: 2.4
Weeds Per Pot: Yellow Nutsedge [2, 5]: 4
Weeds Per Pot: Yellow Nutsedge [2, 6]: 1.9
Weeds Per Pot: Yellow Nutsedge [2, 7]: 3
Weeds Per Pot: Yellow Nutsedge [2, 8]: 2.1
Weeds Per Pot: Yellow Nutsedge [2, 9]: 3
Weeds Per Pot: Yellow Nutsedge [2, 10]: 4.9
Weeds Per Pot: Yellow Nutsedge [2, 11]: 3.3
Weeds Per Pot: Yellow Nutsedge [2, 12]: 4.7
Weeds Per Pot: Yellow Nutsedge [2, 13]: 3.9
Weeds Per Pot: Yellow Nutsedge [2, 14]: 3.1
Weeds Per Pot: Yellow Nutsedge [2, 15]: 5.4
Weeds Per Pot: Yellow Nutsedge [2, 16]: 4.7
Weeds Per Pot: Yellow Nutsedge [2, 17]: 5.3
Weeds Per Pot: Yellow Nutsedge [2, 18]: 4.1
Number of Plants/Pot ([3]; C2H5CO2H 250 mg/kg soil): 3.7
Fresh Shoot Weight ([3]; C2H5CO2H 250 mg/kg soil): 19.6 g
Root Condition Index ([3]; C2H5CO2H 250 mg/kg soil): 2.1
Shoot Height ([3]; C2H5CO2H 250 mg/kg soil): 26.9 cm

N#CN [Cyanamide, hydrogen cyanamide]
Weeds Per Pot: Morningglory [1, 19]: 3.3
Weeds Per Pot: Morningglory [1, 20]: 2.7
Weeds Per Pot: Morningglory [1, 21]: 2.9
Morningglory weeds per pot [1, 22]: about three or fewer momingglory weeds per pot
Weeds Per Pot: Yellow Nutsedge [2, 19]: 2.4
Weeds Per Pot: Yellow Nutsedge [2, 20]: 4.6
Weeds Per Pot: Yellow Nutsedge [2, 21]: 6
Yellow nutsedge weeds per pot [2, 22]: about six or fewer yellow nutsedge weeds per pot
Number of Plants/Pot ([3]; cyanamide 20 mg/kg soil): 4
Number of Plants/Pot ([3]; cyanamide 40 mg/kg soil): 3.9
Number of Plants/Pot ([3]; cyanamide 60 mg/kg soil): 4.7
Number of Plants/Pot ([3]; cyanamide 80 mg/kg soil): 4.4
Number of Plants/Pot ([3]; cyanamide 120 mg/kg soil): 4.9
Fresh Shoot Weight ([3]; cyanamide 20 mg/kg soil): 21.7 g
Root Condition Index ([3]; cyanamide 20 mg/kg soil): 1.6
Shoot Height ([3]; cyanamide 20 mg/kg soil): 26.4 cm
Fresh Shoot Weight ([3]; cyanamide 40 mg/kg soil): 20.5 g
Root Condition Index ([3]; cyanamide 40 mg/kg soil): 1.4
Shoot Height ([3]; cyanamide 40 mg/kg soil): 26.5 cm
Fresh Shoot Weight ([3]; cyanamide 60 mg/kg soil): 25.5 g
Root Condition Index ([3]; cyanamide 60 mg/kg soil): 1.1
Shoot Height ([3]; cyanamide 60 mg/kg soil): 27 cm
Fresh Shoot Weight ([3]; cyanamide 80 mg/kg soil): 24.95 g
Root Condition Index ([3]; cyanamide 80 mg/kg soil): 1.1
Shoot Height ([3]; cyanamide 80 mg/kg soil): 27.1 cm
Fresh Shoot Weight ([3]; cyanamide 120 mg/kg soil): 29.4 g
Root Condition Index ([3]; cyanamide 120 mg/kg soil): 1.3
Shoot Height ([3]; cyanamide 120 mg/kg soil): 28.7 cm
